These results are taken from US20250152580A1, “METHODS FOR TREATING IMMUNE DISEASES” (Ascentage Pharma (Suzhou) co., Ltd., priority 2022, published 2025).

Experiment [1] deals with DSS induced IBD (colitis) model. As to the kind of experiment: DSS induced inflammatory bowel disease (IBD) model in C57BL/6 mice. It counts as in vivo. Particulars: for pathological score (colon): day 8, vehicle 10.10±0.17. The text has this:
Female C57BL/6 mice (8 weeks old) were obtained from Beijing Vital River Laboratory Animal Co. Ltd. Animals were housed and handled in a temperature-controlled environment with a 12-h light/12-h dark cycle. A total of 50 mice were assigned to 5 groups by randomization based on body weight.
On Day 0, colitis was induced by administration of 3% DSS (dextran sodium sulfate, molecular weight 36,000-50,000) in drinking water ad libitum for 8 days. 8-week-old mice were divided into 5 groups: Group 2, DSS treatment group (vehicle, po, qd, from day 0 to day 7); Group 3, DSS with 30 mg/kg Cpd. 4 (po, qd, from day 0 to day 7); Group 4, DSS with 100 mg/kg Cpd. 4 (po, qd, from day 0 to day 7); and Group 5, DSS with 50 mg/kg Cyclosporine (po, qd, from day 0 to day 7). For the Group 1 (G1) Sham group, the mice were provided drinking water without DSS.
Clinical signs of IBD were assessed every day based on the scores of disease activity index (DAI) which was evaluated from three parameters using a scoring system from 0 to 4: stool consistency (0, normal stool; 1, soft but still formed stool; 2, soft and not formed stool; 3, very soft and wet stool; 4, watery diarrhea), bleeding score (0, negative hemoccult; 1, weak positive hemoccult; 2, positive hemoccult; 3, blood trace in stool visible; 4, gross rectal bleeding) and body weight loss (0, no body weight loos; 1, 1-5% body weight loss; 2, 6-10% body weight loss; 3, 11-20% body weight loss; 4, >20% body weight loss).
At the end of induction with DSS, the animals were euthanized, dissected and the entire colon was quickly removed and gently cleared of feces.
The entire colon was weighed, and the total length was measured. Colon weight gain and shortening is an indirect marker of inflammation. As expected, DSS increased colon weight to 243.8±10.73 mg. Cpd. […] 4 treatment (FIG. 11).
The colon of a mouse was Swiss-rolled and fixed with neutralized PFA followed by H&E staining. After that, the pathologists from WuXi clinical pathological analysis platform, who were blinded to animal ID, reviewed the H&E staining and scored. The pathological scoring standards were as follows: crypt architecture (normal, 0; severe crypt distortion with loss of entire crypts, 3), degree of inflammatory cell infiltration (normal, 0; dense inflammatory infiltrate, 3), muscle thickening (normal, 0; marked muscle thickening present, 3), goblet cell depletion (absent, 0; present, 1) and crypt abscess (absent, 0; present, 1).
At the end of the study (day 8), all the animals were sacrificed by CO2, and the colon tissues were collected and fixed in 10% formalin for pathological analysis (H&E and LFB staining). The histopathological score was evaluated microscopically in a blinded manner.

Experiment [2] concerns LPS inhalation induced lung neutrophils infiltration model. Put plainly: LPS inhalation induced neutrophils infiltration model in C57BL/6 mice. Format: in vivo. Particulars: Cpd. 4 50 mg/kg oral each day, Cpd. X 50 mg/kg iv twice a week, Cpd. XI 12 mg/kg iv twice a week, week 4-10; compared with Vehicle. As to the method:
C57BL/6 mice (6-8 weeks old) were obtained from Shanghai LC Laboratory Animal Co. Ltd. Animals, housed and handled in a temperature-controlled environment with a 12-h light/12-h dark cycle. A total of 60 female C57BL/6J mice will be modeled by atomization inhalation LPS 3 times a week for 10 weeks (adjustments may be made according to animal health status). LPS concentration is at 0.7 mg/mL. On each day of challenge, animals in G1 will receive aerosol inhalation of PBS and intravenous injection of Vehicle; animals in G2 will receive aerosol inhalation of LPS and intravenous injection of Vehicle; animals in G3 will be given aerosol inhalation of LPS and intravenous injection of 50 mg/kg Cpd. X twice a week (D1/4) from week 4-10; animals in G4 will be given aerosol inhalation of LPS and intravenous injection of 12 mg/kg Cpd.XI twice a week (D1/4) from week 4-10; animals in G5 will be given aerosol inhalation of LPS and oral administration of 50 mg/kg Cpd. 4 each day from week 4-10; animals in G6 will be given aerosol inhalation of LPS and oral administration of dexamethasone 1 hour before each challenge. Lungs will be gently lavaged via the tracheal cannula with 0.8 mL of PBS containing 1% BSA and 0.6 mM EDTA 48 hr after the last LPS exposure. The procedure will be repeated twice with 0.8 mL of PBS containing 1% BSA and 0.6 mM EDTA. The bronchoalveolar lavage fluid (BALF) will be centrifuged at 300×g for 5 min at 4° C., the cell pellet will be resuspended in 1.5 mL PBS. Total numbers of neutrophils in BALF will be counted using a hemocytometer.

[3] abbreviates: Cpd. 4 30 and 100 mg/kg po qd, compared with Vehicle.

“Also recorded” adds a separate entry of the source.

As for `O=C(NS(=O)(=O)c1ccc(NC[C@H]2COCCO2)c([N+](=O)[O-])c1)c1ccc(N2CCN(CC3=C(c4ccc(Cl)cc4)CC4(CCC4)CC3)CC2)cc1Oc1cnc2[nH]ccc2c1` [Cpd. 4, (S)-N-((4-(((1,4-dioxan-2-yl)methyl)amino)-3-nitrophenyl)sulfonyl)-2-((1H-pyrrolo[2,3-b]pyridin-5-yl)oxy)-4-(4-((6-(4-chlorophenyl)spiro[3.5]non-6-en-7-yl)methyl)piperazin-1-yl)benzamide], the colon length in experiment [1] (30 mg/kg po qd day 0 to day 7, vehicle 4.81±0.08 cm) is 5.25±0.11 cm. In addition, in experiment [1] (30 mg/kg po qd day 0 to day 7, vehicle 243.8±10.73 mg), the colon weight was determined as 188.4 ± 10.48 mg. The “pathological score (colon)” value amounted to 6.70±0.25 in experiment [1] (30 mg/kg po qd) and 3.70±0.25 in experiment [1] (100 mg/kg po qd). The “disease activity index (DAI), clinical score of IBD” value in experiment [1] (Cpd. 4 30 and 100 mg/kg po qd day 0 to day 7, cyclosporine 50 mg/kg po qd, compared with Vehicle) was “significantly reducing the clinical score; also recorded: significantly reduced”. Moreover, the “colon length (in words)” value in experiment [1] (setting [3]) was “significantly increased”. In addition, the “colon weight (in words)” value in experiment [1] (setting [3]) is “significantly decreased”. Besides, the “pathological score (in words)” value in experiment [1] (Cpd. 4, compared with Vehicle) is listed as “significantly decreased”. The “BALF neutrophils (infiltration in lung)” value in experiment [2] is “significantly reducing the BALF neutrophils; also recorded: significantly reduced”.
